Test systems include SF-539 CNS; HOP-92 NSCLC; HL-60(TB) leukemia; OVCAR-5 ovarian; IGROV1 ovarian; KM12 colon; COLO 205 colon; HS 578T breast; DU-145 prostate; MDA-MB-435.
Test in all cases: NCI tumour cell line growth inhibition, 48 h

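48-hour exposure; five concentrations; linearly interpolated endpoints. Abbreviation: GI50, concentration required for 50% inhibition of growth. TGI denotes the concentration required for complete inhibition of growth.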

The source of these data is PubChem BioAssay (NCI).

Regarding `O=C1CCCC[C@H]1[C@H]1CCC[C@@H]([C@H]2CCCCC2=O)C1=O`, the TGI in the test with SF-539 CNS, in the test on HOP-92 NSCLC, in the test on HL-60(TB) leukemia, in the test on OVCAR-5 ovarian, in the test on IGROV1 ovarian and in the test with KM12 colon was over 100 µM in each case. The same compound came in with a TGI in the test on COLO 205 colon of over 100 µM.
On to `Cc1ncc(CCCN(C)C)cc1Nc1ncc2c(n1)-c1ccc(C(F)(F)F)cc1NC(=S)C2`, for which the GI50 was 0.0312 µM in the test with SF-539 CNS; 0.0216 µM in the test with HOP-92 NSCLC; under 0.0148 µM with HL-60(TB) leukemia; under 0.0237 µM in the test with OVCAR-5 ovarian; 0.43 µM in the test on IGROV1 ovarian; under 0.0134 µM in the test with KM12 colon. Further, the GI50 in the test with COLO 205 colon is under 0.0111 µM; in the test with HS 578T breast, 0.0276 µM. The TGI in the test on SF-539 CNS was 0.11 µM; with HOP-92 NSCLC, 0.519 µM; in the test with HL-60(TB) leukemia, 0.872 µM; in the test on OVCAR-5 ovarian it was over 51.1 µM; in the test with IGROV1 ovarian it was 1.35 µM; in the test with KM12 colon, 10.9 µM. Also, the TGI is under 0.0198 µM in the test with COLO 205 colon and 1.14 µM in the test with HS 578T breast.
On to `O=C1OC2CCCC[C@@H]2C2C[C@]34CCCCC3[C@@H](C(=O)O4)C12` (stereo not given in full), for which the TGI in the test on SF-539 CNS, in the test with HOP-92 NSCLC, in the test on OVCAR-5 ovarian, in the test on KM12 colon and in the test with COLO 205 colon was over 100 µM in each case.
As for `CCN(CC)c1ccc(N=Nc2ccc(-c3nc4ccc[n+](C)c4s3)cc2)cc1`, the TGI was 23 µM in the test on SF-539 CNS; 30.1 µM with HOP-92 NSCLC; 31.1 µM in the test on OVCAR-5 ovarian; 46.2 µM with IGROV1 ovarian; 10.9 µM in the test on KM12 colon; 11.4 µM in the test with COLO 205 colon.
For the compound `C=CC/C=C/C/C=C/CCCCCCCc1cccc(O)c1C(=O)O`, the TGI with SF-539 CNS was over 100 µM; in the test on HOP-92 NSCLC it was 75 µM; in the test with HL-60(TB) leukemia, over 100 µM; in the test on OVCAR-5 ovarian it was over 100 µM; in the test with IGROV1 ovarian it was over 100 µM; with KM12 colon, over 100 µM. In addition, the TGI in the test with COLO 205 colon is over 100 µM.
On to `O=c1c2cc(Br)cc(Br)c2nc(CCCl)n1CCO`, for which the TGI in the test on SF-539 CNS, in the test with HOP-92 NSCLC, with HL-60(TB) leukemia, in the test on OVCAR-5 ovarian, in the test with IGROV1 ovarian and in the test on KM12 colon was over 100 µM in each case. Also, the TGI with COLO 205 colon is over 100 µM.
As for `C/C(CC(=O)NCCc1ccccc1)=N\NC(=O)C[n+]1ccccc1`, the TGI in the test on SF-539 CNS, with HOP-92 NSCLC, in the test with HL-60(TB) leukemia, in the test on OVCAR-5 ovarian, with IGROV1 ovarian and in the test on KM12 colon was over 100 µM in each case. In the test on COLO 205 colon, this compound gave a TGI of over 100 µM.
For `O=C1/C(=C/c2cccc([N+](=O)[O-])c2)COc2ccc(Br)cc21`, the TGI was over 100 µM in the test on SF-539 CNS; over 100 µM in the test with HOP-92 NSCLC; 58 µM with HL-60(TB) leukemia; over 100 µM in the test on OVCAR-5 ovarian; over 100 µM in the test with IGROV1 ovarian; over 100 µM in the test on KM12 colon. This compound gave a TGI in the test on COLO 205 colon of over 100 µM.
On to `NC(=O)NCc1c(C(N)=O)ncn1Cc1ccccc1`, for which the TGI in the test with SF-539 CNS, with HOP-92 NSCLC, in the test with HL-60(TB) leukemia, with IGROV1 ovarian and in the test with COLO 205 colon was over 100 µM in each case.
With `O=C1[C@@H]2C(c3ccccc3F)=NO[C@@H]2C(=O)N1c1ccc(Cc2ccc(N3C(=O)[C@H]4C(c5ccccc5F)=NO[C@H]4C3=O)cc2)cc1`, the TGI with SF-539 CNS is over 100 µM; in the test with HOP-92 NSCLC, over 100 µM; with HL-60(TB) leukemia it was 34.7 µM; with OVCAR-5 ovarian, over 100 µM; in the test on IGROV1 ovarian it was over 100 µM; in the test with KM12 colon, over 100 µM. In the test with COLO 205 colon, the TGI was over 100 µM.
`O=C(O)[C@H](NS(=O)(=O)c1ccc([N+](=O)[O-])cc1)c1ccccc1`: the TGI in the test with SF-539 CNS, with HOP-92 NSCLC, in the test with OVCAR-5 ovarian, in the test with IGROV1 ovarian, in the test on KM12 colon and in the test with COLO 205 colon was over 100 µM in each case.
As to `CC(=O)N[C@H]1CSSC[C@@H](C(N)=O)NC(=O)[C@H](C(C)C)NC(=O)[C@H](C)NC(=O)[C@H](Cc2cnc[nH]2)NC1=O`, the GI50 with SF-539 CNS, in the test with HOP-92 NSCLC, with HL-60(TB) leukemia, in the test on OVCAR-5 ovarian, in the test with IGROV1 ovarian and with KM12 colon was over 100 µM each time. For the same compound, the GI50 in the test on DU-145 prostate, with MDA-MB-435 and in the test on COLO 205 colon was over 100 µM throughout. Moreover, the TGI in the test on SF-539 CNS, with HOP-92 NSCLC, in the test with HL-60(TB) leukemia, in the test with OVCAR-5 ovarian, with IGROV1 ovarian and with KM12 colon was over 100 µM each time. The TGI in the test with DU-145 prostate, in the test on MDA-MB-435 and in the test on COLO 205 colon was over 100 µM each time.
On to `CSC(C1c2ccccc2N(c2ccc(C)cc2)c2[nH]c(=O)n(C)c(=O)c21)S(=O)(=O)c1ccc(C)cc1` (stereo not given), for which the TGI with SF-539 CNS, in the test on HOP-92 NSCLC, in the test on HL-60(TB) leukemia, in the test with OVCAR-5 ovarian, in the test with IGROV1 ovarian and with COLO 205 colon was over 100 µM each time.
In the case of `O=C1CCC(O)=C1N=Nc1ccccc1`, the TGI with SF-539 CNS, in the test with HOP-92 NSCLC, in the test on HL-60(TB) leukemia, in the test on OVCAR-5 ovarian, in the test on IGROV1 ovarian and in the test on KM12 colon was over 100 µM in each case. The compound also returned a TGI in the test with COLO 205 colon of over 100 µM.
Take `CN(C)c1cc[c]([Sn]([c]2ccc(N(C)C)cc2)([c]2ccc(N(C)C)cc2)[c]2ccc(N(C)C)cc2)cc1`: the GI50 was 15.8 µM with SF-539 CNS; 8.08 µM with HOP-92 NSCLC; 1.89 µM in the test with HL-60(TB) leukemia; 16.2 µM in the test on OVCAR-5 ovarian; 5.25 µM with IGROV1 ovarian; 5.88 µM in the test with KM12 colon. In addition, in the test with COLO 205 colon, the GI50 was 4.19 µM. For the same compound, the TGI in the test with SF-539 CNS worked out at 33.4 µM; with HOP-92 NSCLC, 20.5 µM; in the test with HL-60(TB) leukemia, 6.93 µM; in the test on OVCAR-5 ovarian it was 33.2 µM; in the test with IGROV1 ovarian it was 19.6 µM; in the test on KM12 colon, 22.7 µM. In addition, the TGI in the test on COLO 205 colon stood at 17.7 µM.
